Measurements reported in EP4813381A1, “PHARMACEUTICAL USE OF GUAIANE SESQUITERPENE DERIVATIVE” (Nanjing University Of Chinese Medicine, priority 2023, dated 2025).

Assays:
CCR2 mRNA = CCR2 mRNA level in MDSCs (PCR); assay type: cell-based, mice; conditions: CCR2 mRNA levels in MDSCs, 2 h
Experimental: Mice were euthanized by cervical dislocation and immersed in 75% ethanol solution for 5 min. Under sterile conditions, the tibia was removed, both ends of the bone were cut, and bone marrow was repeatedly flushed into a 15 mL centrifuge tube using a 1 mL syringe filled with culture medium. Centrifuge at 1600 rpm for 5 min to collect bone marrow cells. Wash twice with 1×PBS, then resuspend in RPMI 1640 complete medium containing GM-CSF (10 ng/mL) + IL-4 (10 ng/mL) and transfer to a cell culture dish to stimulate differentiation of bone marrow cells into MDSCs. Count cells and adjust density to 1 × 10^6 cells/mL in complete medium. Seed cells uniformly into 6-well plates at 2 mL per well. […] After incubation, collect cells into centrifuge tubes, centrifuge at 1600 rpm for 5 min, wash once with 1×PBS, and add 500 µL RNA extraction reagent to each tube. After centrifugation to obtain the pellet, add 20 µL DEPC-treated water to each tube to dissolve the pellet. Determine RNA concentration and reverse transcribe to cDNA. Add the cDNA, primers, and reverse transcriptase to a 96-well plate. Centrifuge at 4000 rpm for 5 min, then place in a PCR instrument for detection.

[1] = tested on: Th2-related factors Il4, Il13, Il31 and inflammatory factors Tslp, Tnf, Il1; test: MC903-induced ear atopic dermatitis mouse model, Compound 1 ointment: Q-PCR of ear; assay type: in vivo; design: unit not given here; conditions: ear mRNA, AD mice
Experimental: Except for the Normal group, all other groups underwent AD modeling: 20 µL of MC903 solution (also known as calcipotriol, purchased from Shanghai Yuanye Biotechnology Co., Ltd., used for inducing atopic models) was applied to each mouse's ears once daily for 14 consecutive days to induce the atopic dermatitis model. […] Measure ear thickness changes every 2 days using an electronic caliper before modeling and after treatment initiation.

[2] = tested on: MC903-induced atopic dermatitis (AD); test: MC903-induced ear atopic dermatitis mouse model, oral Compound 20: dermatitis score, ear thickness, serum IgE; conditions: for IgE: serum, AD mice

In the case of C=C1C(=O)O[C@@H]2[C@@H]3[C@]4(CC[C@@]3(C)O)C[C@]4(C)CC[C@@H]12 [compound 1], the “CCR2 mRNA suppression rate in MDSCs (%)” value (CCR2 mRNA; 1 µM) was 35.2%, the “CCR2 mRNA suppression rate in MDSCs (%)” value (CCR2 mRNA; 10 µM) was 76.5% and the Il1 ([1]; 0.01% ointment) was 19.67 ± 5.26. For the same molecule, the Il4 ([1]; 0.01% ointment) was 3.62 ±0.97, the Il13 ([1]; 0.01% ointment) was 3.30 ±0.47 and the Il31 ([1]; 0.01% ointment) was 2.31 ±0.28. The TSLP ([1]; 0.01% ointment) was 2.24 ±0.25, the Tnf ([1]; 0.01% ointment) was 2.35 ±0.39 and the Il1 ([1]; 0.1% ointment) was 9.89 ±3.44. For the same molecule, the Il4 ([1]; 0.1% ointment) was 1.95 ±0.66, the Il13 ([1]; 0.1% ointment) was 2.85 ±0.48 and the Il31 ([1]; 0.1% ointment) was 1.64 ±0.25. The TSLP ([1]; 0.1% ointment) was 1.42 ±0.16, the Tnf ([1]; 0.1% ointment) was 1.34 ±0.41 and the Il1 ([1]; 1% ointment) was 5.69±1.12. The Il4 ([1]; 1% ointment) was 1.17±0.37, the Il13 ([1]; 1% ointment) was 1.56±0.20 and the Il31 ([1]; 1% ointment) was 1.10±0.19. The TSLP ([1]; 1% ointment) was 1.12±0.07 and the Tnf ([1]; 1% ointment) was 1.01±0.40.
For CN(C)C[C@@H]1C(=O)O[C@H]2[C@H]1CC[C@@]1(C)C[C@]13CC[C@@](C)(O)[C@H]23 [compound 20], the atopic dermatitis score ([2]; oral 0.1 mg/kg, Day 1) was 0.00±0.00, the ear thickness ([2]; oral 0.1 mg/kg, Day 1) was 0.20±0.00 mm and the atopic dermatitis score ([2]; oral 0.1 mg/kg, Day 3) was 0.67±0.21. The ear thickness ([2]; oral 0.1 mg/kg, Day 3) was 0.24±0.00 mm, the atopic dermatitis score ([2]; oral 0.1 mg/kg, Day 5) was 1.33±0.21 and the ear thickness ([2]; oral 0.1 mg/kg, Day 5) was 0.26±0.00 mm. For the same molecule, the atopic dermatitis score ([2]; oral 0.1 mg/kg, Day 7) was 2.17±0.17, the ear thickness ([2]; oral 0.1 mg/kg, Day 7) was 0.26±0.00 mm and the atopic dermatitis score ([2]; oral 0.1 mg/kg, Day 8) was 2.50±0.22. For the same molecule, the ear thickness ([2]; oral 0.1 mg/kg, Day 8) was 0.27±0.00 mm, the atopic dermatitis score ([2]; oral 0.1 mg/kg, Day 9) was 3.00±0.26 and the ear thickness ([2]; oral 0.1 mg/kg, Day 9) was 0.28±0.00 mm. For the same molecule, the atopic dermatitis score ([2]; oral 0.1 mg/kg, Day 10) was 3.50±0.22, the ear thickness ([2]; oral 0.1 mg/kg, Day 10) was 0.29±0.00 mm and the atopic dermatitis score ([2]; oral 0.1 mg/kg, Day 11) was 3.67±0.21. It also gave an ear thickness ([2]; oral 0.1 mg/kg, Day 11) of 0.30±0.00 mm, an atopic dermatitis score ([2]; oral 0.1 mg/kg, Day 12) of 3.33±0.21 and an ear thickness ([2]; oral 0.1 mg/kg, Day 12) of 0.30±0.00 mm. It also gave an atopic dermatitis score ([2]; oral 0.1 mg/kg, Day 13) of 3.00±0.00, an ear thickness ([2]; oral 0.1 mg/kg, Day 13) of 0.30±0.00 mm and an atopic dermatitis score ([2]; oral 0.1 mg/kg, Day 14) of 2.67±0.21. For the same molecule, the ear thickness ([2]; oral 0.1 mg/kg, Day 14) was 0.29±0.00 mm, the atopic dermatitis score ([2]; oral 1 mg/kg, Day 1) was 0.00±0.00 and the ear thickness ([2]; oral 1 mg/kg, Day 1) was 0.20±0.00 mm. The atopic dermatitis score ([2]; oral 1 mg/kg, Day 3) was 0.50±0.22, the ear thickness ([2]; oral 1 mg/kg, Day 3) was 0.23±0.00 mm and the atopic dermatitis score ([2]; oral 1 mg/kg, Day 5) was 1.17±0.17. It also gave an ear thickness ([2]; oral 1 mg/kg, Day 5) of 0.24±0.00 mm, an atopic dermatitis score ([2]; oral 1 mg/kg, Day 7) of 1.67±0.21 and an ear thickness ([2]; oral 1 mg/kg, Day 7) of 0.26±0.00 mm. It also gave an atopic dermatitis score ([2]; oral 1 mg/kg, Day 8) of 2.17±0.17, an ear thickness ([2]; oral 1 mg/kg, Day 8) of 0.27±0.00 mm and an atopic dermatitis score ([2]; oral 1 mg/kg, Day 9) of 2.83±0.17. For the same molecule, the ear thickness ([2]; oral 1 mg/kg, Day 9) was 0.28±0.00 mm, the atopic dermatitis score ([2]; oral 1 mg/kg, Day 10) was 3.00±0.00 and the ear thickness ([2]; oral 1 mg/kg, Day 10) was 0.28±0.00 mm. It also gave an atopic dermatitis score ([2]; oral 1 mg/kg, Day 11) of 3.17±0.17, an ear thickness ([2]; oral 1 mg/kg, Day 11) of 0.28±0.00 mm and an atopic dermatitis score ([2]; oral 1 mg/kg, Day 12) of 2.67±0.21. It also gave an ear thickness ([2]; oral 1 mg/kg, Day 12) of 0.27±0.00 mm, an atopic dermatitis score ([2]; oral 1 mg/kg, Day 13) of 2.50±0.22 and an ear thickness ([2]; oral 1 mg/kg, Day 13) of 0.27±0.00 mm. For the same molecule, the atopic dermatitis score ([2]; oral 1 mg/kg, Day 14) was 2.00±0.00, the ear thickness ([2]; oral 1 mg/kg, Day 14) was 0.27±0.00 mm and the atopic dermatitis score ([2]; oral 10 mg/kg, Day 1) was 0.00±0.00. For the same molecule, the ear thickness ([2]; oral 10 mg/kg, Day 1) was 0.20±0.00 mm, the atopic dermatitis score ([2]; oral 10 mg/kg, Day 3) was 0.67±0.21 and the ear thickness ([2]; oral 10 mg/kg, Day 3) was 0.23±0.00 mm. It also gave an atopic dermatitis score ([2]; oral 10 mg/kg, Day 5) of 1.00±0.00, an ear thickness ([2]; oral 10 mg/kg, Day 5) of 0.25±0.00 mm and an atopic dermatitis score ([2]; oral 10 mg/kg, Day 7) of 2.00±0.00. It also gave an ear thickness ([2]; oral 10 mg/kg, Day 7) of 0.26±0.00 mm, an atopic dermatitis score ([2]; oral 10 mg/kg, Day 8) of 2.50±0.22 and an ear thickness ([2]; oral 10 mg/kg, Day 8) of 0.27±0.00 mm. It also gave an atopic dermatitis score ([2]; oral 10 mg/kg, Day 9) of 2.83±0.17, an ear thickness ([2]; oral 10 mg/kg, Day 9) of 0.27±0.00 mm and an atopic dermatitis score ([2]; oral 10 mg/kg, Day 10) of 2.67±0.42. For the same molecule, the ear thickness ([2]; oral 10 mg/kg, Day 10) was 0.27±0.00 mm, the atopic dermatitis score ([2]; oral 10 mg/kg, Day 11) was 3.00±0.26 and the ear thickness ([2]; oral 10 mg/kg, Day 11) was 0.27±0.00 mm. The atopic dermatitis score ([2]; oral 10 mg/kg, Day 12) was 2.33±0.33, the ear thickness ([2]; oral 10 mg/kg, Day 12) was 0.25±0.00 mm and the atopic dermatitis score ([2]; oral 10 mg/kg, Day 13) was 1.67±0.21. It also gave an ear thickness ([2]; oral 10 mg/kg, Day 13) of 0.25±0.00 mm, an atopic dermatitis score ([2]; oral 10 mg/kg, Day 14) of 1.50±0.22 and an ear thickness ([2]; oral 10 mg/kg, Day 14) of 0.24±0.01 mm. It also gave an IgE ([2]; oral 0.1 mg/kg) of 239.26 ± 48.93 ng/mL, an IgE ([2]; oral 1 mg/kg) of 167.90 ± 21.03 ng/mL and an IgE ([2]; oral 10 mg/kg) of 145.68 ± 23.19 ng/mL.
